Laboratory results taken from patent publication EP3345917A1, “ANTIPROTOZOAL COMPOUNDS” (Bacoba AG, priority 2017, dated 2018).
Non-standard residues stand in square brackets, D forms with d. Residues, ends and D or L forms follow the SMILES beside them. *: point of attachment. Hexenoyl(2E,4S-Me) = CC[C@H](C)/C=C/C(=O)*; Leu(3R-OH) = CC(C)[C@@H](O)[C@H](N)C(=O)O; Gly(octyl) = CCCCCCCC[C@H](N)C(=O)O; X17 = C[C@@H](CN1CCOCC1)N*; Aib = CC(C)(N)C(=O)O; βAla = NCCC(=O)O

What was measured:
[1] = tested on: intracellular Leishmania donovani (L.don. InMac); test: Intracellular Leishmania donovani assay (L.don. InMac); assay type: cell-based; conditions: In vitro inhibition
Text: Tests were done in triplicate.

[2] = Cytotoxicity assay on L6-cells (Alamar Blue); conditions: rat, Cytotox L6, Cytotoxicity against rat myoblast cells (L6)
Protocol: (§1) Tests were done in triplicate. IC50 values against the parasites as well as cytotoxic effects against rat myoblast (L6-cells) were determined by serial dilution and repeated twice.
(§2) After 68 h of incubation under humidified 5% CO2 atmosphere, 10 µl of the Alamar blue marker was added to all wells. The plates were incubated for an additional 2 h. […] The IC50S were calculated by Softmax Pro software (Molecular Devices Cooperation, Sunnyvale, CA). […] Cytotoxicity was measured against rat myoblast cells (Cytotox L6).

rat myoblast (L6-cells) = test: Cytotoxicity assay on L6-cells (Alamar Blue); conditions: read-out: Cytotox L6; Cytotoxicity against rat myoblast cells (L6)
Protocol: as §1, §2

Structure (SMILES): CCCCCCCC[C@H](NC(=O)[C@@H]1CCCN1C(=O)/C=C/[C@@H](C)CC)C(=O)N[C@H](C(=O)NC(C)(C)C(=O)N[C@@H](CC(C)C)C(=O)N[C@@H](CC(C)C)C(=O)NC(C)(C)C(=O)NC(C)(C)C(=O)NCCC(=O)N[C@@H](C)CN1CCOCC1)[C@H](O)C(C)C [Compound 5573, (2S)-N-[(1S,2R)-2-hydroxy-3-methyl-1-[(1-methyl-1-{[(1S)-3-methyl-1-{[(1S)-3-methyl-1-{[1-methyl-1-({1-methyl-1-[(2-{[(2S)-1-(morpholin-4-yl)propan-2-yl]carbamoyl}ethyl)carbamoyl]ethyl}carbamoyl)ethyl]carbamoyl}butyl]carbamoyl}butyl]carbamoyl}ethyl)carbamoyl]butyl]-2-{[(2S)-1-[(2E,4S)-4-methylhex-2-enoyl]pyrrolidin-2-yl]formamido}decanamide] ({Hexenoyl(2E,4S-Me)}-P[Gly(octyl)][Leu(3R-OH)][Aib]LL[Aib][Aib][βAla]-X17)
- IC50 [1]: 0.0204 µM
- IC50 at 70 h [2]: 0.512 µM
- IC50 (rat myoblast (L6-cells)): 0.738 µM
